Here are results for eight molecules from patent US20210221866A1, “PROTEASE-RESISTANT LIPIDATED GLP-1 ANALOGS” (MEDIMMUNE LIMITED, priority 2015, published 2021).

The assay deals with T1, human GLP-1 receptor (GLP-1R) (Homo sapiens, UniProt P43220).
T1 construct: expressed in transfected cells; host or cells: HEK293 cells or CHO cells
Put plainly: cAMP assay, human GLP-1R cells. It counts as cell-based. To be noted: cAMP activity. How it is done: Sample dilutions are made in duplicate.
A frozen cryo-vial of cells expressing the receptor of interest is thawed rapidly in a water-bath, transferred to pre-warmed assay buffer and spun at 240×g for 5 minutes. Cells are re-suspended in assay buffer at a batch-dependent optimized concentration (e.g. hGCGR cells at 2×10^5 cells/ml, hGLP-1R and hGIPR cells at 1×10^5 cells/ml).
To this, 5 μL cell suspension is added and the plates incubated at room temperature for 30 minutes.
cAMP levels are measured using a commercially available cAMP dynamic 2 HTRF kit (Cisbio, Cat #62AM4PEJ), following the two step protocol as per manufacturer's recommendations. In brief; anti-cAMP cryptate (donor fluorophore) and cAMP-d2 (acceptor fluorophore) are made up separately by diluting each 1/20 in conjugate & lysis buffer provided in the kit. 5 μL anti-cAMP cryptate is added to wells of the assay plate, and 5 μL cAMP-d2 is added to wells except non-specific binding (NSB) wells, to which conjugate and lysis buffer are added. […] EC50 values of the synthetic peptides determined in cAMP assays are then determined.
Data is transformed to % Delta F as described in the manufacturer's guidelines and analyzed by 4-parameter logistic fit to determine EC50 values. […] To compare the balance of activities at the GLP-1R and GCGR between different peptides and across different conditions, these can be correlated, where the EC50's are related to those of comparator peptides.

Setting [1] is: mean of n1 and n2, read-out: Mean pM GLP-1R.

Like-named read-outs stand apart in the source and are kept apart here. Numbered stars: 1 amine (or outer) side, 2 acyl side, 3 side chain; on linkers, the order of the positions; unused ones are H or OH. Square brackets hold non-standard residues; d marks the D form. Side chains are listed from the residue outwards. Peptide text beside a SMILES is read from it. * marks the point of attachment. γGlu = O=C(O)[C@H](CCC(=O)[*:2])N[*:1]; Palmitoyl = CCCCCCCCCCCCCCCC(=O)*; αMeF = C[C@](N)(Cc1ccccc1)C(=O)O; αMeK = C[C@](N)(CCCCN)C(=O)O; αMeS = C[C@](N)(CO)C(=O)O; Aib = CC(C)(N)C(=O)O

T1 sequence (P43220 24-463): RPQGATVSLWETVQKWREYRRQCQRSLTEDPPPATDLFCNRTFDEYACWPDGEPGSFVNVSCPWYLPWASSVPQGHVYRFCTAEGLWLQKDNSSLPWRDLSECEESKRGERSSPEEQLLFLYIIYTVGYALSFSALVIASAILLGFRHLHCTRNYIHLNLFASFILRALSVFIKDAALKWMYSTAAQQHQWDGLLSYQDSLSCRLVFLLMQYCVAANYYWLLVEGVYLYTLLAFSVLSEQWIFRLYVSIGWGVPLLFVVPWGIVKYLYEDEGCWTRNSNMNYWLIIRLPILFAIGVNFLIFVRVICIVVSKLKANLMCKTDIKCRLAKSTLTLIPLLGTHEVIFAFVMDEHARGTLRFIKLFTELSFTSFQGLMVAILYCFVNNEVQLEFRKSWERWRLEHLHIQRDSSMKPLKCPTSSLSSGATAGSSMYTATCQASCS

On to `CC[C@H](C)[C@H](NC(=O)[C@H](Cc1ccccc1)NC(=O)[C@H](CCC(=O)O)NC(=O)[C@H](CCCCN)NC(=O)[C@H](C)NC(=O)[C@H](C)NC(=O)[C@H](CCC(N)=O)NC(=O)CNC(=O)[C@H](CCC(=O)O)NC(=O)[C@H](CC(C)C)NC(=O)[C@H](Cc1ccc(O)cc1)NC(=O)[C@H](CO)NC(=O)[C@H](CO)NC(=O)[C@@H](NC(=O)[C@H](CC(=O)O)NC(=O)[C@H](CO)NC(=O)[C@@H](NC(=O)[C@H](Cc1ccccc1)NC(=O)[C@@H](NC(=O)CNC(=O)[C@H](CCC(=O)O)NC(=O)C(C)(C)NC(=O)[C@@H](N)Cc1c[nH]cn1)[C@@H](C)O)[C@@H](C)O)C(C)C)C(=O)N[C@@H](C)C(=O)N[C@@H](Cc1c[nH]c2ccccc12)C(=O)N[C@@H](CC(C)C)C(=O)N[C@H](C(=O)N[C@@H](CCCCN)C(=O)NCC(=O)N[C@@H](CCCNC(=N)N)C(=O)N[C@@H](CCCCNC(=O)COCCOCCNC(=O)COCCOCCNC(=O)CC[C@H](NC(=O)CCCCCCCCCCCCCCCCC(=O)O)C(=O)O)C(N)=O)C(C)C` [compound 6], for which, under setting [1], the EC50 was determined as 5.1 pM.
For `CC[C@H](C)[C@H](NC(=O)[C@](C)(Cc1ccccc1)NC(=O)[C@H](CCC(=O)O)NC(=O)[C@](C)(CCCCN)NC(=O)[C@H](C)NC(=O)[C@H](C)NC(=O)[C@H](CCC(=O)O)NC(=O)CNC(=O)[C@H](CCC(=O)O)NC(=O)[C@H](CC(C)C)NC(=O)[C@](C)(Cc1ccccc1)NC(=O)[C@H](CO)NC(=O)[C@H](CO)NC(=O)[C@@H](NC(=O)[C@H](CCC(=O)O)NC(=O)[C@H](CO)NC(=O)[C@H](CO)NC(=O)[C@](C)(Cc1ccccc1)NC(=O)[C@H](CO)NC(=O)CNC(=O)[C@H](CCC(=O)O)NC(=O)C(C)(C)NC(=O)[C@@H](N)Cc1c[nH]cn1)C(C)C)C(=O)N[C@@H](C)C(=O)N[C@@](C)(Cc1ccccc1)C(=O)N[C@H](C(=O)N[C@H](C(=O)N[C@@](C)(CCCCN)C(=O)NCC(=O)NCC(N)=O)C(C)C)C(C)C` [compound 9] (H-H[Aib]EGS[αMeF]SSEVSS[αMeF]LEGEAA[αMeK]E[αMeF]IA[αMeF]VV[αMeK]GG-NH2; N-terminus assumed), under setting [1], the EC50 came to 1200 pM.
Still for that read-out and setting: under `CC[C@H](C)[C@H](NC(=O)[C@](C)(Cc1ccccc1)NC(=O)[C@H](CCC(=O)O)NC(=O)[C@](C)(CCCCN)NC(=O)[C@H](C)NC(=O)[C@H](C)NC(=O)[C@H](CCC(=O)O)NC(=O)CNC(=O)[C@H](CCC(=O)O)NC(=O)[C@@H](NC(=O)[C@](C)(Cc1ccccc1)NC(=O)[C@H](CO)NC(=O)[C@H](CO)NC(=O)[C@@H](NC(=O)[C@H](CC(=O)O)NC(=O)[C@H](CO)NC(=O)[C@@H](NC(=O)[C@](C)(Cc1ccccc1)NC(=O)[C@H](CO)NC(=O)CNC(=O)[C@H](CCC(=O)O)NC(=O)C(C)(C)NC(=O)[C@@H](N)Cc1c[nH]cn1)[C@@H](C)O)C(C)C)C(C)C)C(=O)N[C@@H](C)C(=O)N[C@@](C)(Cc1ccccc1)C(=O)N[C@H](C(=O)N[C@H](C(=O)N[C@@](C)(CCCCN)C(=O)NCC(=O)NCC(N)=O)C(C)C)C(C)C` [compound 10] (H-H[Aib]EGS[αMeF]TSDVSS[αMeF]VEGEAA[αMeK]E[αMeF]IA[αMeF]VV[αMeK]GG-NH2) stands 90 pM.
With `CC(C)[C@H](NC(=O)[C@H](CCC(=O)O)NC(=O)[C@H](CO)NC(=O)[C@H](CO)NC(=O)[C@](C)(Cc1ccccc1)NC(=O)[C@H](CO)NC(=O)CNC(=O)[C@H](CCC(=O)O)NC(=O)C(C)(C)NC(=O)[C@@H](N)Cc1c[nH]cn1)C(=O)N[C@@H](CO)C(=O)N[C@@H](CO)C(=O)N[C@@](C)(Cc1ccccc1)C(=O)N[C@H](C(=O)N[C@@H](CCC(=O)O)C(=O)NCC(=O)N[C@@H](CCC(=O)O)C(=O)N[C@@H](C)C(=O)N[C@@H](C)C(=O)N[C@@](C)(CCCCN)C(=O)N[C@@H](CCC(=O)O)C(=O)N[C@@](C)(Cc1ccccc1)C(=O)N[C@H](C(=O)N[C@@H](C)C(=O)N[C@@](C)(Cc1ccccc1)C(=O)N[C@H](C(=O)N[C@H](C(=O)N[C@@](C)(CCCCN)C(=O)NCC(=O)NCC(N)=O)C(C)C)C(C)C)C(C)C)C(C)C` [compound 12] (H-H[Aib]EGS[αMeF]SSEVSS[αMeF]VEGEAA[αMeK]E[αMeF]VA[αMeF]VV[αMeK]GG-NH2; N-terminus assumed), the EC50 under setting [1] came out at 2100 pM.
Still for that read-out and setting: under `CC[C@H](C)[C@H](NC(=O)[C@H](Cc1ccccc1)NC(=O)[C@H](CCC(=O)O)NC(=O)[C@H](CCCCN)NC(=O)[C@H](C)NC(=O)[C@H](C)NC(=O)[C@H](CCC(N)=O)NC(=O)CNC(=O)[C@H](CCC(=O)O)NC(=O)[C@H](CC(C)C)NC(=O)[C@H](Cc1ccc(O)cc1)NC(=O)[C@H](CO)NC(=O)C(C)(C)NC(=O)[C@@H](NC(=O)[C@H](CC(=O)O)NC(=O)[C@H](CO)NC(=O)[C@@H](NC(=O)[C@H](Cc1ccccc1)NC(=O)[C@@H](NC(=O)CNC(=O)[C@H](CCC(=O)O)NC(=O)C(C)(C)NC(=O)[C@@H](N)Cc1c[nH]cn1)[C@@H](C)O)[C@@H](C)O)C(C)C)C(=O)N[C@@H](C)C(=O)N[C@@H](Cc1c[nH]c2ccccc12)C(=O)N[C@@H](CC(C)C)C(=O)N[C@H](C(=O)N[C@@H](CCCCN)C(=O)NCC(=O)N[C@@H](CCCNC(=N)N)C(N)=O)C(C)C` [compound 22] (H-H[Aib]EGTFTSDV[Aib]SYLEGQAAKEFIAWLVKGR-NH2; N-terminus assumed) stands 118 pM.
For the molecule `CC[C@H](C)[C@H](NC(=O)[C@](C)(Cc1ccccc1)NC(=O)[C@H](CCC(=O)O)NC(=O)[C@](C)(CCCCN)NC(=O)[C@H](C)NC(=O)[C@H](C)NC(=O)[C@H](CCC(=O)O)NC(=O)CNC(=O)[C@H](CCC(=O)O)NC(=O)[C@H](CC(C)C)NC(=O)[C@](C)(Cc1ccccc1)NC(=O)[C@H](CO)NC(=O)[C@](C)(CO)NC(=O)[C@@H](NC(=O)[C@H](CC(=O)O)NC(=O)[C@H](CCC(=O)O)NC(=O)[C@@H](NC(=O)[C@](C)(Cc1ccccc1)NC(=O)[C@H](CO)NC(=O)CNC(=O)[C@H](CCC(=O)O)NC(=O)C(C)(C)NC(=O)[C@@H](N)Cc1c[nH]cn1)[C@@H](C)O)C(C)C)C(=O)N[C@@H](C)C(=O)N[C@@](C)(Cc1ccccc1)C(=O)N[C@H](C(=O)N[C@H](C(=O)N[C@@](C)(CCCCN)C(=O)NCC(=O)NCC(N)=O)C(C)C)C(C)C` [compound 28] (H-H[Aib]EGS[αMeF]TEDV[αMeS]S[αMeF]LEGEAA[αMeK]E[αMeF]IA[αMeF]VV[αMeK]GG-NH2; N-terminus assumed), the EC50 under setting [1] was 4620 pM and the EC50 (second determination (n2), read-out: Primary assay EC50 GLP-1R n2) is 4700 pM.
As for `CC[C@H](C)[C@H](NC(=O)[C@](C)(Cc1ccccc1)NC(=O)[C@H](CCC(=O)O)NC(=O)[C@](C)(CCCCN)NC(=O)[C@H](C)NC(=O)[C@H](C)NC(=O)[C@H](CCC(=O)O)NC(=O)CNC(=O)[C@H](CCC(=O)O)NC(=O)[C@H](CC(C)C)NC(=O)[C@](C)(Cc1ccccc1)NC(=O)[C@H](CO)NC(=O)[C@](C)(CO)NC(=O)[C@@H](NC(=O)[C@H](CC(=O)O)NC(=O)[C@@H](NC(=O)[C@@H](NC(=O)[C@](C)(Cc1ccccc1)NC(=O)[C@H](CO)NC(=O)CNC(=O)[C@H](CCC(=O)O)NC(=O)C(C)(C)NC(=O)[C@@H](N)Cc1c[nH]cn1)[C@@H](C)O)[C@@H](C)O)C(C)C)C(=O)N[C@@H](C)C(=O)N[C@@](C)(Cc1ccccc1)C(=O)N[C@H](C(=O)N[C@H](C(=O)N[C@@](C)(CCCCN)C(=O)NCC(=O)NCC(N)=O)C(C)C)C(C)C` [compound 29] (H-H[Aib]EGS[αMeF]TTDV[αMeS]S[αMeF]LEGEAA[αMeK]E[αMeF]IA[αMeF]VV[αMeK]GG-NH2), the EC50 under setting [1] was 801 pM.
As for `CCCCCCCCCCCCCCCC(=O)N[C@@H](CCC(=O)NCCCC[C@H](NC(=O)[C@](C)(Cc1ccccc1)NC(=O)[C@H](C)NC(=O)[C@@H](NC(=O)[C@](C)(Cc1ccccc1)NC(=O)[C@H](CCC(=O)O)NC(=O)[C@](C)(CCCCN)NC(=O)[C@H](C)NC(=O)[C@H](C)NC(=O)[C@H](CCC(=O)O)NC(=O)CNC(=O)[C@H](CCC(=O)O)NC(=O)[C@H](CC(C)C)NC(=O)[C@](C)(Cc1ccccc1)NC(=O)[C@H](CO)NC(=O)[C@](C)(CO)NC(=O)[C@@H](NC(=O)[C@H](CC(=O)O)NC(=O)[C@H](CO)NC(=O)[C@@H](NC(=O)[C@](C)(Cc1ccccc1)NC(=O)[C@H](CO)NC(=O)CNC(=O)[C@H](CCC(=O)O)NC(=O)C(C)(C)NC(=O)[C@@H](N)Cc1c[nH]cn1)[C@@H](C)O)C(C)C)[C@@H](C)CC)C(=O)N[C@H](C(=O)N[C@@](C)(CCCCN)C(=O)NCC(=O)NCC(N)=O)C(C)C)C(=O)O` [compound 74] (H-H[Aib]EGS[αMeF]TSDV[αMeS]S[αMeF]LEGEAA[αMeK]E[αMeF]IA[αMeF]K([γGlu-Palmitoyl])V[αMeK]GG-NH2; N-terminus assumed), under setting [1], the EC50 was determined as 2.1 pM.
